Results published in patent publication EP4786487A1, “PEPTIDE” (Peptidream Inc, priority 2023, dated 2025).
Where two headings read alike, the source gives them in different places. Starred links: 1 amine or outer side, 2 acyl side, 3 side chain; linkers in the order of their positions; H or OH if unused. Positions of bridges follow the written chain, without caps; N, C: chain ends. Non-standard residues stand in square brackets, D forms with d. Residues, ends and D or L forms follow the SMILES beside them. Groups on a side chain read outwards from the residue. *: point of attachment. Phe(3-OCH2COOH) = N[C@@H](Cc1cccc(OCC(=O)O)c1)C(=O)O; Phe(4-COOH) = N[C@@H](Cc1ccc(C(=O)O)cc1)C(=O)O; Piperazinyl(4-CH2COOH) = O=C(O)CN1CCN(*)CC1; 3Pal(6-NH2) = Nc1ccc(C[C@H](N)C(=O)O)cn1; 1Nal = N[C@@H](Cc1cccc2ccccc12)C(=O)O; Gly(decyl) = CCCCCCCCCC[C@H](N)C(=O)O; Gly(N(CH2)3COOH) = O=C(O)CCCNCC(=O)O; NMe4Pal = CN[C@@H](Cc1ccncc1)C(=O)O; NMeY = CN[C@@H](Cc1ccc(O)cc1)C(=O)O; X1 = CCCCCCC[C@H](N[*:1])C(=O)[*:2]; NMeF = CN[C@@H](Cc1ccccc1)C(=O)O; 3Pal = N[C@@H](Cc1cccnc1)C(=O)O; Ahp(2) = CCCCC[C@H](N)C(=O)O; d(hCys) = N[C@H](CCS)C(=O)O; NMeA = CN[C@@H](C)C(=O)O; X9 = NC(=O)CC1CCN(*)CC1; CO = O=C([*:1])[*:2]; Sar = CNCC(=O)O

Tests used:
Myostatin = molecular target: T1, Myostatin (Homo sapiens, UniProt O14793); experiment: HepG2 reporter gene assay, Evaluation Procedure (2): 2-concentrations assay, myostatin inhibition; assay type: cell-based; details: HepG2
T1 construct: active myostatin (also called mature myostatin) is a homodimer consisting of two C-terminal growth factor domains; purchased R&D systems 788-G8/CF
T1 sequence (O14793 267-375): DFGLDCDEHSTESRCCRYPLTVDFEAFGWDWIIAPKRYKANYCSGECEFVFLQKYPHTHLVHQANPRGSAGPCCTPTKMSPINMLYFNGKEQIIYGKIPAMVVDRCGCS
Procedure, shortened: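 HepG2 cells (HB-8065, ATCC) carrying the transfected pGL3(CAGA)12-luc reporter plasmid were treated with myostatin (788-G8/CF, R&D systems) at a final concentration of 10 ng/mL plus peptide and incubated at 37°C, 5% CO2 for 20 to 24 hours. Luminescence was read after adding PBS mixed 1:1 with One-Glo substrate, and inhibition rate was calculated.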

GDF-11 = molecular target: T2, GDF-11 (Homo sapiens, UniProt O95390); experiment: HepG2 reporter gene assay, Evaluation Procedure (2): 2-concentrations assay, GDF-11 inhibition; assay type: cell-based; details: for inhibition at 0.03 µM: HepG2, peptide 30nM, read-out: GDF11 Inhibition 30nM; for inhibition at 0.03 µM / inhibition at 0.1 µM: GDF-11 10 ng/mL; for inhibition at 0.1 µM: HepG2, peptide 100nM, read-out: GDF11 Inhibition 100nM; for inhibition: read-out: inhibition rate (GDF-11 inhibition assay)
T2 construct: purchased R&D systems 1958-GD-G8/CF
T2 sequence (O95390 299-407): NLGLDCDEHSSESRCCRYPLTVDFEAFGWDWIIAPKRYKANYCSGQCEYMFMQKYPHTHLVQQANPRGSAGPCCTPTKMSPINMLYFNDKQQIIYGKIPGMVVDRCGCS
Procedure, shortened: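 HepG2 cells carrying the transfected pGL3(CAGA)12-luc reporter, a pGL3 vector with luciferase placed downstream of 12 CAGA repeats, were stimulated with GDF-11 at a final 10 ng/mL together with test peptide. Blank wells received no GDF-11 and no peptide. Plates were incubated 20 to 24 hours at 37°C with 5% CO2. Luminescence from One-Glo substrate was read to calculate percent inhibition.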

[1] = peptide 30nM, Myostatin 10 ng/mL, read-out: Myostatin Inhibition 30nM
[2] = peptide 100nM, Myostatin 10 ng/mL, read-out: Myostatin Inhibition 100nM
[3] = Table 7-3/7-4, myostatin 10 ng/mL, peptide at the higher of the 2 concentrations, read-out: inhibition rate (myostatin inhibition assay)
[4] = Table 7-3/7-4, myostatin 10 ng/mL, peptide at the lower of the 2 concentrations, read-out: inhibition rate (myostatin inhibition assay)
[5] = HepG2, first GDF-11 column of Table 7-3/7-4, GDF-11 10 ng/mL, peptide at the lower of the 2 concentrations
[6] = HepG2, second GDF-11 column of Table 7-3/7-4, GDF-11 10 ng/mL, peptide at the higher of the 2 concentrations

Row | Structure (SMILES) | inhibition at 0.03 µM (Myostatin; [1]) [%] | inhibition at 0.1 µM (Myostatin; [2]) [%] | inhibition at 0.03 µM (GDF-11) [%] | inhibition at 0.1 µM (GDF-11) [%] | inhibition at 0.1 µM (Myostatin; [3]) [%] | inhibition at 0.03 µM (Myostatin; [4]) [%] | inhibition (GDF-11; [5]) [%] | inhibition (GDF-11; [6]) [%]
1 | CC[C@H](C)[C@@H]1NC(=O)[C@H](Cc2ccccc2)N(C)C(=O)[C@H](Cc2ccc(O)cc2)NC(=O)[C@H](Cc2c[nH]c3ccccc23)NC(=O)[C@H](CCCNC(=N)N)NC(=O)[C@H](C)N(C)C(=O)CSC[C@@H](C(N)=O)NC(=O)[C@H](Cc2ccccc2)N(C)C(=O)[C@H](C)N(C)C(=O)[C@H](CC(C)C)NC(=O)[C@H](Cc2ccccc2)N(C)C(=O)[C@H](CCCNC(=N)N)NC(=O)[C@H](Cc2ccc(O)cc2)NC(=O)[C@H](Cc2ccc(O)cc2)NC(=O)CN(C)C1=O [Myostatin_000099_01meA] ({CH2CO}-[NMeA]RWY[NMeF]I[Sar]YYR[NMeF]L[NMeA][NMeF]C-NH2; thioether N-15) | 55 | 82 | 0 | 0 |  |  |  | 
2 | CC[C@H](C)[C@@H]1NC(=O)[C@H](Cc2ccccc2)N(C)C(=O)[C@H](Cc2ccc(N)nc2)NC(=O)[C@H](Cc2c[nH]c3ccccc23)NC(=O)[C@H](C)NC(=O)CN(CCCC(=O)O)C(=O)CSC[C@H](C(N)=O)NC(=O)[C@H](Cc2ccccc2)N(C)C(=O)[C@H](C)N(C)C(=O)[C@H](CC(C)C)NC(=O)[C@H](Cc2ccccc2)N(C)C(=O)[C@H](CCCNC(=N)N)NC(=O)[C@H](Cc2cccnc2)NC(=O)[C@H](Cc2ccccc2)NC(=O)CN(C)C1=O [Myostatin_99_Variant_26] ({CH2CO}-[Gly(N(CH2)3COOH)]AW[3Pal(6-NH2)][NMeF]I[Sar]F[3Pal]R[NMeF]L[NMeA][NMeF][dC]-NH2; thioether N-15) | 26 | 50 | 0 | 0 |  |  |  | 
3 | CCCCCCC[C@@H]1NC(=O)[C@H](Cc2ccccc2)N(C)C(=O)[C@H](CCCNC(=N)N)NC(=O)[C@H](Cc2ccc(C(=O)O)cc2)NC(=O)[C@H](Cc2cccc(OCC(=O)O)c2)NC(=O)CN(C)C(=O)[C@H]([C@@H](C)CC)NC(=O)[C@H](Cc2ccc(OC)cc2)N(C)C(=O)[C@H](Cc2ccc(O)cc2)NC(=O)[C@H](Cc2c[nH]c3ccccc23)NC(=O)[C@H](C)NC(=O)[C@H](C)NC(=O)CSC[C@H](C(=O)N2CCN(CC(=O)O)CC2)NC(=O)[C@H](Cc2ccccc2)N(C)C(=O)[C@H](C)N(C)C1=O [Myostatin_99_v307] ({CH2CO}-AAWY[NMeY](Me)I[Sar][Phe(3-OCH2COOH)][Phe(4-COOH)]R[NMeF][X1][NMeA][NMeF][dC]-{Piperazinyl(4-CH2COOH)}; thioether N-15) |  |  |  |  | 98 | 89 | 0 | 12
4 | CCCCCCC[C@@H]1NC(=O)[C@H](Cc2ccccc2)N(C)C(=O)[C@H](CCCNC(=N)N)NC(=O)[C@H](Cc2ccc(C(=O)O)cc2)NC(=O)[C@H](Cc2cccc(OCC(=O)O)c2)NC(=O)CN(C)C(=O)[C@H]([C@@H](C)CC)NC(=O)[C@H](Cc2ccccc2)N(C)C(=O)[C@H](Cc2cccc3ccccc23)NC(=O)[C@H](Cc2c[nH]c3ccccc23)NC(=O)[C@H](C)NC(=O)[C@H](C)NC(=O)CSC[C@H](C(=O)N2CCN(CC(=O)O)CC2)NC(=O)[C@H](Cc2ccccc2)N(C)C(=O)[C@H](C)N(C)C1=O [Myostatin_99_v300] ({CH2CO}-AAW[1Nal][NMeF]I[Sar][Phe(3-OCH2COOH)][Phe(4-COOH)]R[NMeF][X1][NMeA][NMeF][dC]-{Piperazinyl(4-CH2COOH)}; thioether N-15) | 81 | 97 | 0 | 0 |  |  |  | 
5 | CCCCCCCCCC[C@@H]1NC(=O)[C@H](Cc2ccccc2)N(C)C(=O)[C@H](CCCNC(=N)N)NC(=O)[C@H](Cc2ccc(C(=O)O)cc2)NC(=O)[C@H](Cc2cccc(OCC(=O)O)c2)NC(=O)CN(C)C(=O)[C@H]([C@@H](C)CC)NC(=O)[C@H](Cc2ccccc2)N(C)C(=O)[C@H](Cc2ccc(O)cc2)NC(=O)[C@H](Cc2c[nH]c3ccccc23)NC(=O)[C@H](C)NC(=O)[C@H](CCCCNC(=O)N2CCN(CC(=O)O)CC2)NC(=O)CSC[C@H](C(=O)N2CCN(CC(=O)O)CC2)NC(=O)[C@H](Cc2ccccc2)N(C)C(=O)[C@H](C)N(C)C1=O [Myostatin_99_v263] ({CH2CO}-K([CO-Piperazinyl(4-CH2COOH)])AWY[NMeF]I[Sar][Phe(3-OCH2COOH)][Phe(4-COOH)]R[NMeF][Gly(decyl)][NMeA][NMeF][dC]-{Piperazinyl(4-CH2COOH)}; thioether N-15) | 100 | 100 | 8 | 56 |  |  |  | 
6 | CCCCCCC[C@@H]1NC(=O)[C@H](Cc2ccccc2)N(C)C(=O)[C@H](CCCNC(=N)N)NC(=O)[C@H](Cc2ccc(C(=O)O)cc2)NC(=O)[C@H](Cc2cccc(OCC(=O)O)c2)NC(=O)CN(C)C(=O)[C@H]([C@@H](C)CC)NC(=O)[C@H](Cc2ccccc2)N(C)C(=O)[C@H](Cc2ccc(O)cc2)NC(=O)[C@H](Cc2c[nH]c3ccccc23)NC(=O)[C@H](C)NC(=O)[C@H](C)NC(=O)CSC[C@H](C(=O)O)NC(=O)[C@H](Cc2ccncc2)N(C)C(=O)[C@H](C)N(C)C1=O [Myostatin_99_v213] ({CH2CO}-AAWY[NMeF]I[Sar][Phe(3-OCH2COOH)][Phe(4-COOH)]R[NMeF][X1][NMeA][NMe4Pal][dC]-OH; thioether N-15) | 90 | 98 | 0 | 0 |  |  |  | 
7 | CCCCC[C@@H]1NC(=O)[C@H](Cc2ccccc2)N(C)C(=O)[C@H](CCCNC(=N)N)NC(=O)[C@H](Cc2ccc(C(=O)O)cc2)NC(=O)[C@H](Cc2cccc(OCC(=O)O)c2)NC(=O)CN(C)C(=O)[C@H]([C@@H](C)CC)NC(=O)[C@H](Cc2ccccc2)N(C)C(=O)[C@H](Cc2ccc(O)cc2)NC(=O)[C@H](Cc2c[nH]c3ccccc23)NC(=O)[C@H](C)NC(=O)[C@H](C)N(C)C(=O)CSC[C@H](C(=O)O)NC(=O)[C@H](Cc2ccccc2)N(C)C(=O)[C@H](C)N(C)C1=O [Myostatin_99_v240] ({CH2CO}-[NMeA]AWY[NMeF]I[Sar][Phe(3-OCH2COOH)][Phe(4-COOH)]R[NMeF][Ahp(2)][NMeA][NMeF][dC]-OH; thioether N-15) | 69 | 91 | 0 | 0 |  |  |  | 
8 | CCCCCCC[C@@H]1NC(=O)[C@H](Cc2ccccc2)N(C)C(=O)[C@H](CCCNC(=N)N)NC(=O)[C@H](Cc2ccc(C(=O)O)cc2)NC(=O)[C@H](Cc2cccc(OCC(=O)O)c2)NC(=O)[C@H](C)N(C)C(=O)[C@H]([C@@H](C)CC)NC(=O)[C@H](Cc2ccccc2)N(C)C(=O)[C@H](Cc2ccc(O)cc2)NC(=O)[C@H](Cc2c[nH]c3ccccc23)NC(=O)[C@H](C)NC(=O)CN(CCCC(=O)O)C(=O)CSCC[C@H](C(=O)O)NC(=O)[C@H](Cc2ccccc2)N(C)C(=O)[C@H](C)N(C)C1=O [Myostatin_99_v441] ({CH2CO}-[Gly(N(CH2)3COOH)]AWY[NMeF]I[NMeA][Phe(3-OCH2COOH)][Phe(4-COOH)]R[NMeF][X1][NMeA][NMeF][d(hCys)]-OH; thioether N-15) |  |  |  |  | 100 | 100 | 0 | 0
9 | CCCCCCC[C@@H]1NC(=O)[C@H](Cc2ccccc2)N(C)C(=O)[C@H](CCCNC(=N)N)NC(=O)[C@H](Cc2ccc(C(=O)O)cc2)NC(=O)[C@H](Cc2cccc(OCC(=O)O)c2)NC(=O)[C@H](C)N(C)C(=O)[C@H]([C@@H](C)CC)NC(=O)[C@H](Cc2ccccc2)N(C)C(=O)[C@H](Cc2ccc(O)cc2)NC(=O)[C@H](Cc2c[nH]c3ccccc23)NC(=O)[C@H](C)NC(=O)CN(CCCC(=O)O)C(=O)CSC[C@H](C(=O)N2CCC(CC(N)=O)CC2)NC(=O)[C@H](Cc2ccccc2)N(C)C(=O)[C@H](C)N(C)C1=O [Myostatin_99_v432] ({CH2CO}-[Gly(N(CH2)3COOH)]AWY[NMeF]I[NMeA][Phe(3-OCH2COOH)][Phe(4-COOH)]R[NMeF][X1][NMeA][NMeF][dC]-X9; thioether N-15) |  |  |  |  | 100 | 100 | 0 | 0
